Measurements from patent publication US12668572B2, “Degradable lipid for active molecule delivery and lipid nanoparticle thereof” (BEIJING CARRIUS BIO LTD., priority 2023, dated 2026).

System: expression of luciferase (firefly luciferase mRNA) in liver
Assay: In vivo luciferase imaging (IVIS) of liver after tail vein administration of Fluc mRNA/LNPs
Parameters: species or system Balb/c mice
Details: 6 hours; for Average intensity (comparison with SM102 and MC3): N/P 7.5, tail vein, liver
Experimental: In order to achieve mRNA delivery at animal level, the inventors prepared mRNA/lipid nanoparticles using the method as follows: formulating each of the ionizable lipid compounds (YX8, YX17, YX31, YX27, YX28, YX35, YX29 or YX33) prepared in Example 1, cholesterol, DOPE and DMG-PEG2000 into a 10 mg/mL ethanol solution. Taking YX27 as an example, when preparing an mRNA/LNP complex in a single time, YX27 solution (1.6 mg) was measured and mixed with cholesterol, DOPE and DMG-PEG2000 according to a molar ratio of 50:38.5:10:1.5, and the total volume of the solution was allowed to reach 450 μl by supplementing ethanol. 150 μg of firefly luciferase mRNAs were taken and added to a sodium acetate buffer (50 mM, pH=5.2), and the total volume of the solution was 1350 μl. The ionizable lipid compound solution and the mRNA solution were mixed by introducing into a microfluidic machine (speed: 0.2 mL/min of ethanol solution, and 0.6 mL/min of sodium acetate buffer solution) to prepare lipid nanoparticles encapsulating mRNAs, which were dialyzed against PBS buffer for 2 hours, and the obtained samples were directly used for animal experiments. The ratio of the ionizable lipid compound YX27 to mRNAs was calculated according to the molar ratio (N/P) of the nitrogen atoms in YX27 to the phosphorus atoms in the phosphate skeleton of the mRNAs. In this example, N/P was 7.5.
In order to verify the delivery effect of the above Fluc mRNA/LNP preparation, YX27 LNPs encapsulating 150 μg/kg Fluc mRNAs were injected into 6-8 week-old female Balb/c mice by administration via tail vein, or YX27 LNPs encapsulating 250 μg/kg Fluc mRNAs were injected into the hind legs of mice by intramuscular administration; after 6 hours, 200 μl of D-Lucifin (with a mass fraction of 30%) was injected by intraperitoneal administration, and the expression and intensity of luciferase in the whole body, liver and muscle administration sites were detected by PerkinElmer IVIS Lumina III small animal in vivo optical imaging system. In order to study the effect of the hydrophobic chain length of lipid compounds on mRNA delivery efficiency, LNP samples encapsulating Fluc mRNAs were prepared using lipid compounds YX9, YX8, YX17 and YX31 respectively according to YX27 experimental operation, and the efficiency of luciferase expression in mice was studied.
In order to study the effect of the mixing ratio (N/P ratio) of ionizable lipids and mRNAs as the LNP components on the mRNA delivery efficiency, mixed samples of YX27 and luciferase mRNAs at N/P ratios of 7.5 and 9 were prepared according to the operation steps of Example 2, the mRNA delivery and the expression and intensity of luciferase in the whole body, liver and other sites were studied by administration via tail vein (the delivery results are shown in FIG. 3 and the table below).
LNPs containing SM102 or MC3 as the cationic lipid and luciferase mRNAs at an N/P ratio of 7.5 were prepared according to the operation steps of Example 2, in which the dose of Fluc mRNAs was 25 μg/kg, 50 μg/kg or 150 μg/kg respectively; and then the mRNA delivery by the prepared LNPs and the expression and intensity of luciferase in the whole body, liver and other sites were studied by administration via tail vein. The delivery results are shown in FIG. 4A, FIG. 4B and the table below.
In order to verify the expression efficiency of luciferase after administration of Fluc mRNA/LNPs as a function of time, YX27 solution encapsulating 150 μg/kg of Fluc mRNAs was injected into 6-8 week-old female Balb/c mice by administration via tail vein; 2 h, 4 h, 6 h, 18 h and 24 h after administration respectively, 200 μl of D-Lucifin (with a mass fraction of 30%) was injected by intraperitoneal administration, and the expression and intensity of luciferase in the whole body and liver site were detected by PerkinElmer IVIS Lumina III small animal in vivo optical imaging system. […]

Row | Compound | Average intensity (comparison with SM102 and MC3) (Fluc mRNA dose 25 μg/kg) [p/s] | Average intensity (comparison with SM102 and MC3) (Fluc mRNA dose 50 μg/kg) [p/s] | Average intensity (comparison with SM102 and MC3) (Fluc mRNA dose 150 μg/kg) [p/s] | Average intensity 50 μg/kg (lipids with different structures) (Fluc mRNA 50 μg/kg, N/P 7.5, liver tissue) [p/s] | Average intensity 150 μg/kg (lipids with different structures) (Fluc mRNA 150 μg/kg, N/P 7.5, liver tissue) [p/s]
1 | CCCCC/C=C\C/C=C\CCCCCCCCC(CCCCCCCC/C=C\C/C=C\CCCCC)OC(=O)CCCN(C)C [MC3, D-Lin-MC3-DMA] | 4.28E+08 | 8.40E+08 | 7.16E+09 | – | –
2 | CCCCCCCCCCCOC(=O)CCCCCN(CCO)CCCCCCCC(=O)OC(CCCCCCCC)CCCCCCCC [SM102] | 1.20E+09 | 2.02E+09 | 5.65E+09 | 2.02E+09 | 5.65E+09
